What is called IC50 is the point on the concentration scale where inhibition reaches its midpoint.

Results on 83 molecules are retold here after ChEMBL document CHEMBL5518196, “Discovery of potent thiazolidin-4-one sulfone derivatives for inhibition of proliferation of osteosarcoma in vitro and in vivo” (Eur J Med Chem, 2024).

Each structure is given as a SMILES string. A value given as a limit tells only on which side of the number the result lay.

This assay deals with HOS-TE85. Briefly: Antiproliferative activity against human MNNG/HOS cells assessed as inhibition of cell growth incubated for 72 hrs by CCK8 assay. The assay is classed as functional, cell-based. To be noted: HOS-TE85, 72 h.
Regarding `O=C(NCCCC(=O)N1CCCC1)c1cccc(C2N(c3ccccn3)C(=O)CS2(=O)=O)n1` (stereo not drawn), the IC50 is over 1000 nM.

For `O=C(NCCCCc1ccccc1)c1cccc(C2N(c3ccccn3)C(=O)CS2(=O)=O)c1` (stereo not drawn), the IC50 is 25 nM.

In the case of `O=C(NCCCCc1ccccc1)c1cccc(C2N(c3cccc(F)c3)C(=O)CS2(=O)=O)c1` (stereo not drawn), the concentration for half-maximal inhibition (IC50) is 103 nM.

`O=C(NCCCCc1ccccc1)c1ccc(C2N(c3ccccc3)C(=O)CS2(=O)=O)o1` (stereo not drawn): the IC50 turned out to be 41 nM.

Turning to `Cc1cc(N2C(=O)CS(=O)(=O)C2c2cccc(C(=O)NCCCCc3ccccc3)c2)no1` (stereo not drawn), the IC50 came to 447 nM.

For the molecule `C#Cc1cc(C(=O)NCCCCc2ccccc2)cc(C2N(c3ccccn3)C(=O)CS2(=O)=O)c1` (stereo not drawn), the IC50 stood at 32 nM.

Take `O=C(CCCNC(=O)c1cccc(C2N(c3ccccn3)C(=O)CS2(=O)=O)n1)c1ccccc1` (stereo not drawn): the IC50 turned out to be 203 nM.

As for `O=C(NCCCCc1ccccc1)c1cccc(C2N(Cc3ccccc3)C(=O)CS2(=O)=O)c1` (stereo not drawn), the IC50 is over 10000 nM.

Regarding `O=C(NCCCCc1ccccc1)c1cccc(C2N(c3cccc(Cl)c3)C(=O)CS2(=O)=O)n1` (stereo not drawn), the IC50 is 430 nM.

On to `O=C(NCCCCc1ccccc1)c1cccc(C2N(c3ccc4ccccc4c3)C(=O)CS2(=O)=O)c1` (stereo not drawn), for which the IC50 came to 474 nM.

With `Cc1ccnc(N2C(=O)CS[C@H]2c2cccc(C(=O)NCCCCn3cccn3)c2)c1`, the half-inhibitory concentration (IC50) is over 10000 nM.

Turning to `O=C(NCCCCc1ccccc1)c1cccc(C2N(c3ccc[n+]([O-])c3)C(=O)CS2(=O)=O)c1` (stereo not drawn), the IC50 was over 10000 nM.

`COc1cccnc1N1C(=O)CS(=O)(=O)C1c1cccc(C(=O)NCCCCc2ccccc2)c1` (stereo not drawn): the IC50 was 16 nM.

With `Cc1cc(N2C(=O)C[S+]([O-])C2c2cccc(C(=O)NCCCCc3ccccc3)c2)no1` (stereo not drawn), the IC50 worked out at 354 nM.

As for `Cc1cccc(N2C(=O)CS(=O)(=O)C2c2cccc(C(=O)NCCCCc3ccccc3)c2)c1` (stereo not drawn), the IC50 turned out to be 230 nM.

In the case of `Cc1cccnc1N1C(=O)CS(=O)(=O)C1c1cccc(C(=O)NCCCCc2ccccc2)n1` (stereo not drawn), the IC50 was found to be 50 nM.

As for `O=C(NCCCCc1ccccc1)c1cccc(C2N(C3CC3)C(=O)CS2(=O)=O)c1` (stereo not drawn), the concentration for half-maximal inhibition (IC50) is over 10000 nM.

For `O=C(NCCCCc1ccccc1)c1cccc(C2N(c3ccccc3)C(=O)CS2(=O)=O)c1` (stereo not drawn), the half-maximal inhibitory concentration (IC50) turned out to be 150 nM.

For `COCCCCNC(=O)c1cccc(C2N(c3ccc(F)cn3)C(=O)CS2(=O)=O)n1` (stereo not drawn), the half-inhibitory concentration (IC50) is 283 nM.

Turning to `O=C(NCCCCc1ccccc1)c1cccc(C2N(C3CCCCC3)C(=O)CS2(=O)=O)c1` (stereo not drawn), the IC50 was found to be 2020 nM.

`COCCCCNC(=O)c1cccc([C@H]2N(c3ncccc3OC)C(=O)CS2(=O)=O)n1`: the IC50 is 71 nM.

Regarding `O=C(NCCCCc1ccccc1)c1cccc(C2N(c3cccc4cccnc34)C(=O)CS2(=O)=O)c1` (stereo not drawn), the IC50 turned out to be 25 nM.

As to `O=C(NCCCCO)c1cccc(C2N(c3ccccn3)C(=O)CS2(=O)=O)n1` (stereo not drawn), the IC50 was over 1000 nM.

Consider `O=C(CCCNC(=O)c1cccc(C2N(c3ccccn3)C(=O)CS2(=O)=O)n1)Nc1ccc(F)cc1` (stereo not drawn), for which the IC50 was over 1000 nM.

Regarding `COCCCCNC(=O)c1cccc([C@@H]2N(c3ccc(F)cn3)C(=O)CS2(=O)=O)n1`, the IC50 was 272 nM.

With `COCCCCNC(=O)c1cccc([C@@H]2N(c3ncccc3OC)C(=O)CS2(=O)=O)n1`, the IC50 was 113 nM.

As for `O=C(CCCCc1ccccc1)Nc1cccc(C2N(c3ccccc3)C(=O)CS2(=O)=O)c1` (stereo not drawn), the 50% inhibitory concentration (IC50) turned out to be 508 nM.

Consider `COC(=O)CCNC(=O)c1cccc(C2N(c3ccccn3)C(=O)CS2(=O)=O)n1` (stereo not drawn), for which the half-inhibitory concentration (IC50) is over 1000 nM.

As for `O=C(NCCCCc1ccccc1)c1cccc(C2N(c3ccccc3)C(=O)C[S+]2[O-])c1` (stereo not drawn), the IC50 came out at 3110 nM.

With `O=C(NCCCCc1ccccc1)c1cccc(C2N(c3cccc(Cl)c3)C(=O)CS2(=O)=O)c1` (stereo not drawn), the IC50 worked out at 75 nM.

Turning to `O=C(NCCCCc1ccccc1)c1cccc(C2N(C3CCOCC3)C(=O)CS2(=O)=O)c1` (stereo not drawn), the IC50 was over 10000 nM.

In the case of `Cc1ccnc(N2C(=O)CS(=O)(=O)C2c2cccc(C(=O)NCCCCn3cccn3)n2)c1` (stereo not drawn), the half-inhibitory concentration (IC50) amounted to 924 nM.

With `O=C(NCCCCc1ccccc1)c1cccc(C2N(c3ccc(F)cn3)C(=O)CS2(=O)=O)n1` (stereo not drawn), the 50% inhibitory concentration (IC50) was found to be 20 nM.

`O=C(NCCCCc1ccccc1)c1cccc(C2N(c3ccccc3)C(=O)C[S+]2[O-])n1` (stereo not drawn): the IC50 is 260 nM.

`COc1ccccc1N1C(=O)CS(=O)(=O)C1c1cccc(C(=O)NCCCCc2ccccc2)n1` (stereo not drawn): the IC50 came out at 4 nM.

In the case of `Cc1ccnc(N2C(=O)CS(=O)(=O)C2c2cccc(C(=O)NCCCCc3ccccc3)c2)c1` (stereo not drawn), the 50% inhibitory concentration (IC50) worked out at 71 nM.

As for `O=C1CS(=O)(=O)C(c2cccc(C(=O)NCCCCc3ccccc3)c2)N1` (stereo not drawn), the 50% inhibitory concentration (IC50) is over 10000 nM.

Turning to `O=C(NCCCCn1cccn1)c1cccc(C2N(c3ccccn3)C(=O)CS2(=O)=O)n1` (stereo not drawn), the IC50 stood at 979 nM.

As for `O=C(NCCCCc1ccccc1)c1cccc(C2N(c3cc(Cl)ccn3)C(=O)CS2(=O)=O)n1` (stereo not drawn), the half-inhibitory concentration (IC50) is 469 nM.

On to `COc1ccccc1N1C(=O)CS(=O)(=O)C1c1cccc(C(=O)NCCCCc2ccccc2)c1` (stereo not drawn), for which the 50% inhibitory concentration (IC50) came out at 31 nM.

On to `COCCCCNC(=O)c1cccc(C2N(c3ncccc3OC)C(=O)CS2(=O)=O)c1` (stereo not drawn), for which the concentration for half-maximal inhibition (IC50) is over 1000 nM.

`Cc1ccnc(N2C(=O)C[S+]([O-])C2c2cccc(C(=O)NCCCCc3ccccc3)c2)c1` (stereo not drawn): the IC50 amounted to 74 nM.

As to `COCCCCNC(=O)c1cccc(C2N(c3ncccc3C)C(=O)CS2(=O)=O)n1` (stereo not drawn), the IC50 was found to be 702 nM.

`O=C(NCCCCc1ccccc1)c1cccc(C2N(c3ccccc3)C(=O)CS2(=O)=O)n1` (stereo not drawn): the concentration for half-maximal inhibition (IC50) is over 10000 nM.

Regarding `COC(=O)CCCCNC(=O)c1cccc(C2N(c3ccccn3)C(=O)CS2(=O)=O)n1` (stereo not drawn), the IC50 stood at 225 nM.

With `COC(=O)c1cccc(C2SCC(=O)N2c2ccccn2)n1` (stereo not drawn), the IC50 was over 1000 nM.

Turning to `O=C(NCCCCc1ccccc1)c1cc(-c2ccccc2)cc(C2N(c3ccccc3)C(=O)CS2(=O)=O)c1` (stereo not drawn), the 50% inhibitory concentration (IC50) is over 10000 nM.

On to `CC(C)(C)OCCCCNC(=O)c1cccc(C2N(c3ccccn3)C(=O)CS2(=O)=O)n1` (stereo not drawn), for which the IC50 was over 1000 nM.

`COCCCCNC(=O)c1cccc([C@H]2N(c3ccc(F)cn3)C(=O)CS2(=O)=O)n1`: the IC50 was determined as 137 nM.

As to `CCN(CC)C(=O)CCCNC(=O)c1cccc(C2N(c3ccccn3)C(=O)CS2(=O)=O)n1` (stereo not drawn), the IC50 is over 1000 nM.

Consider `O=C(NCCCCc1ccccc1)c1cccc(C2N(CCc3ccccc3)C(=O)C[S+]2[O-])c1` (stereo not drawn), for which the IC50 was over 10000 nM.

Take `CCCCNC(=O)c1cccc(C2N(c3ccccn3)C(=O)CS2(=O)=O)n1` (stereo not drawn): the half-inhibitory concentration (IC50) worked out at 420 nM.

With `Cc1ccnc(N2C(=O)C[S+]([O-])C2c2cccc(C(=O)NCCCCn3cccn3)c2)c1` (stereo not drawn), the half-inhibitory concentration (IC50) is 3120 nM.

On to `O=C(NCCCCc1ccccc1)c1cccc(C2N(c3ccccn3)C(=O)CS2(=O)=O)n1` (stereo not drawn), for which the half-inhibitory concentration (IC50) was found to be 109 nM.

In the case of `COCCCCNC(=O)c1cccc(C2N(c3ccccn3)C(=O)C[S+]2[O-])n1` (stereo not drawn), the IC50 was over 1000 nM.

Regarding `O=C(NCCCCc1ccccc1)c1ccc(C2N(c3ccccc3)C(=O)CS2(=O)=O)cc1` (stereo not drawn), the IC50 is over 10000 nM.

Turning to `Cc1ccnc(N2C(=O)C[S+]([O-])C2c2cccc(C(=O)NCCCCn3cccn3)n2)c1` (stereo not drawn), the half-inhibitory concentration (IC50) was found to be 8290 nM.

`Cc1ccnc(N2C(=O)CS(=O)(=O)C2c2cccc(C(=O)NCCCCc3ccccc3)n2)c1` (stereo not drawn): the IC50 is 33 nM.

With `O=C(NCCOCc1ccccc1)c1cccc(C2N(c3ccccn3)C(=O)CS2(=O)=O)n1` (stereo not drawn), the IC50 was over 1000 nM.

In the case of `O=C(NCCCCc1ccccc1)c1cccc(C2N(c3cccc(F)c3)C(=O)CS2(=O)=O)n1` (stereo not drawn), the half-inhibitory concentration (IC50) was determined as 17 nM.

Regarding `COCCCNC(=O)c1cccc(C2N(c3ccccn3)C(=O)CS2(=O)=O)n1` (stereo not drawn), the IC50 was 926 nM.

As for `CN(CCCCc1ccccc1)C(=O)c1cccc(C2N(c3ccccc3)C(=O)CS2(=O)=O)c1` (stereo not drawn), the IC50 is over 10000 nM.

Turning to `O=C(NCCCCc1ccccc1)c1cccc(C2N(c3cccc(F)n3)C(=O)CS2(=O)=O)n1` (stereo not drawn), the IC50 was over 1000 nM.

Take `O=C(NCCCCc1ccccc1)c1cccc(C2N(c3cccc(F)c3)C(=O)C[S+]2[O-])c1` (stereo not drawn): the IC50 worked out at 83 nM.

With `O=C(NCCCCc1ccccc1)c1cccc(C2N(c3ncccc3O)C(=O)CS2(=O)=O)n1` (stereo not drawn), the 50% inhibitory concentration (IC50) came to 45 nM.

In the case of `COc1cccc(N2C(=O)CS(=O)(=O)C2N(CCCCc2ccccc2)C(=O)c2ccccc2)c1` (stereo not drawn), the concentration for half-maximal inhibition (IC50) turned out to be 68 nM.

As to `O=C(NCCCCc1ccccc1)c1cccc(C2N(c3cccc4ccccc34)C(=O)CS2(=O)=O)c1` (stereo not drawn), the IC50 is over 10000 nM.

With `O=C(NCCCCc1ccccc1)c1cccc(C2N(Cc3ccccc3)C(=O)C[S+]2[O-])c1` (stereo not drawn), the concentration for half-maximal inhibition (IC50) was over 10000 nM.

As to `C#Cc1cc(C(=O)NCCCCc2ccccc2)cc(C2N(c3ccccc3)C(=O)CS2(=O)=O)c1` (stereo not drawn), the 50% inhibitory concentration (IC50) was found to be 9 nM.

As for `COc1ccnc(N2C(=O)CS(=O)(=O)C2c2cccc(C(=O)NCCCCc3ccccc3)n2)c1` (stereo not drawn), the concentration for half-maximal inhibition (IC50) was determined as 178 nM.

Consider `COCCCCNC(=O)c1cccc(C2N(c3ncccc3OC)C(=O)C[S+]2[O-])n1` (stereo not drawn), for which the IC50 is over 1000 nM.

With `O=C(NCCCCc1ccccc1)c1cccc(C2N(c3ccc(-c4ccccc4)cc3)C(=O)CS2(=O)=O)c1` (stereo not drawn), the IC50 was over 10000 nM.

As to `Cc1cccc(N2C(=O)C[S+]([O-])C2c2cccc(C(=O)NCCCCc3ccccc3)c2)c1` (stereo not drawn), the IC50 was 177 nM.

For `COC(=O)c1cccc(C2N(c3ccccc3)C(=O)CS2(=O)=O)c1` (stereo not drawn), the IC50 was over 10000 nM.

Regarding `Cc1cccc(N2C(=O)CS(=O)(=O)C2c2cccc(C(=O)NCCCCc3ccccc3)n2)n1` (stereo not drawn), the IC50 came out at 775 nM.

As for `O=C(NCCCCc1ccccc1)c1cc(C(=O)NCCCCc2ccccc2)cc(C2N(c3ccccc3)C(=O)CS2(=O)=O)c1` (stereo not drawn), the half-maximal inhibitory concentration (IC50) is over 10000 nM.

On to `O=C(CCCNC(=O)c1cccc(C2N(c3ccccn3)C(=O)CS2(=O)=O)n1)Nc1ccccc1` (stereo not drawn), for which the half-inhibitory concentration (IC50) was over 1000 nM.

On to `COC(=O)c1cc(C(=O)NCCCCc2ccccc2)cc(C2N(c3ccccc3)C(=O)CS2(=O)=O)c1` (stereo not drawn), for which the concentration for half-maximal inhibition (IC50) was found to be 60 nM.

Turning to `O=C(NCCCCc1ccccc1)c1cccc(C2N(c3ccc4c(c3)OCO4)C(=O)CS2(=O)=O)c1` (stereo not drawn), the IC50 was found to be 73 nM.

On to `CCCCNC(=O)c1cccc(C2N(c3ccccc3)C(=O)CS2(=O)=O)c1` (stereo not drawn), for which the IC50 is over 10000 nM.

In the case of `O=C(O)c1cc(C(=O)NCCCCc2ccccc2)cc(C2N(c3ccccc3)C(=O)CS2(=O)=O)c1` (stereo not drawn), the IC50 was over 10000 nM.

Turning to `COC(=O)CCCNC(=O)c1cccc(C2N(c3ccccn3)C(=O)CS2(=O)=O)n1` (stereo not drawn), the IC50 is 142 nM.

As to `O=C(NCCCCc1ccccc1)c1cccc(C2N(c3ncccc3F)C(=O)CS2(=O)=O)n1` (stereo not drawn), the concentration for half-maximal inhibition (IC50) was found to be 25 nM.
